The target in experiment [1] is T1, JAK2 (Homo sapiens, UniProt O60674). The experiment is described as follows: IC50 for JAK2, Reaction Biology kinase assay (32P Hotspot assay). In kind it is biochemical.
Experiment [2] deals with T1, JAK2. The experiment is described as follows: DSF (JAK2) thermal shift. In kind it is binding.
For experiment [3], the target named is T2, ULK3 (Homo sapiens, UniProt Q6PHR2).
T2 sequence (Q6PHR2 1-472): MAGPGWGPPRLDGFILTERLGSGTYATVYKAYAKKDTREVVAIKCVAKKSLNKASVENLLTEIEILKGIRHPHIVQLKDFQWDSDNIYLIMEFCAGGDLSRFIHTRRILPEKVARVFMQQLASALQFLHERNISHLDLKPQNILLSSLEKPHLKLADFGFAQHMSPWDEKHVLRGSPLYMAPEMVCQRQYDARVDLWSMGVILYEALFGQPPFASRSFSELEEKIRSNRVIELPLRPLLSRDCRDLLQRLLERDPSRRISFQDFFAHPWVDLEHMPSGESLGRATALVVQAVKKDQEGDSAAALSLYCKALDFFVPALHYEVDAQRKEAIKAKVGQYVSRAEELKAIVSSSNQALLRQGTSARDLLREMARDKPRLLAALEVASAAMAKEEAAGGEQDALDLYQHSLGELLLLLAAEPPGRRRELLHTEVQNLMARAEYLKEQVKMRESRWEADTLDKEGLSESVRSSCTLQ
The experiment is described as follows: DSF (ULK3) thermal shift. The format is binding.

Another experiment concerns 8226 B25. The experiment is described as follows: GI50 (MM cell) 8226 B25. In kind it is cell-based.
A further experiment relates to U266. The experiment is described as follows: GI50 (MM cell) U266. As to conditions: Homo sapiens, U-266. The format is cell-based.
The subject of the next experiment is 8226. As to the kind of experiment: GI50 (MM cell) 8226. In kind it is cell-based.
A further experiment relates to U266 PSR. As to the kind of experiment: GI50 (MM cell) U266 PSR. In kind it is cell-based. The note with it: Homo sapiens, U-266.
A further experiment deals with OPM2. As to the kind of experiment: GI50 (MM cell) OPM2. In kind it is cell-based. As to conditions: Homo sapiens, OPM-2.
Experiment [4] has as its target T2, ULK3. The experiment is described as follows: IC50 for ULK3, Reaction Biology kinase assay (32P Hotspot assay). In kind it is biochemical.

pIC50: −log10 of the molar value. “And” between values parts separate entries of the source, which are not always exact repeats. Equal values may be shown once.

The source of these data is patent US20260103455A1, “ULK3 INHIBITORS AND USES THEREOF” (H. LEE MOFFITT CANCER CENTER AND RESEARCH INSTITUTE, INC., priority 2022, published 2026).

T1 sequence (O60674 whole entry): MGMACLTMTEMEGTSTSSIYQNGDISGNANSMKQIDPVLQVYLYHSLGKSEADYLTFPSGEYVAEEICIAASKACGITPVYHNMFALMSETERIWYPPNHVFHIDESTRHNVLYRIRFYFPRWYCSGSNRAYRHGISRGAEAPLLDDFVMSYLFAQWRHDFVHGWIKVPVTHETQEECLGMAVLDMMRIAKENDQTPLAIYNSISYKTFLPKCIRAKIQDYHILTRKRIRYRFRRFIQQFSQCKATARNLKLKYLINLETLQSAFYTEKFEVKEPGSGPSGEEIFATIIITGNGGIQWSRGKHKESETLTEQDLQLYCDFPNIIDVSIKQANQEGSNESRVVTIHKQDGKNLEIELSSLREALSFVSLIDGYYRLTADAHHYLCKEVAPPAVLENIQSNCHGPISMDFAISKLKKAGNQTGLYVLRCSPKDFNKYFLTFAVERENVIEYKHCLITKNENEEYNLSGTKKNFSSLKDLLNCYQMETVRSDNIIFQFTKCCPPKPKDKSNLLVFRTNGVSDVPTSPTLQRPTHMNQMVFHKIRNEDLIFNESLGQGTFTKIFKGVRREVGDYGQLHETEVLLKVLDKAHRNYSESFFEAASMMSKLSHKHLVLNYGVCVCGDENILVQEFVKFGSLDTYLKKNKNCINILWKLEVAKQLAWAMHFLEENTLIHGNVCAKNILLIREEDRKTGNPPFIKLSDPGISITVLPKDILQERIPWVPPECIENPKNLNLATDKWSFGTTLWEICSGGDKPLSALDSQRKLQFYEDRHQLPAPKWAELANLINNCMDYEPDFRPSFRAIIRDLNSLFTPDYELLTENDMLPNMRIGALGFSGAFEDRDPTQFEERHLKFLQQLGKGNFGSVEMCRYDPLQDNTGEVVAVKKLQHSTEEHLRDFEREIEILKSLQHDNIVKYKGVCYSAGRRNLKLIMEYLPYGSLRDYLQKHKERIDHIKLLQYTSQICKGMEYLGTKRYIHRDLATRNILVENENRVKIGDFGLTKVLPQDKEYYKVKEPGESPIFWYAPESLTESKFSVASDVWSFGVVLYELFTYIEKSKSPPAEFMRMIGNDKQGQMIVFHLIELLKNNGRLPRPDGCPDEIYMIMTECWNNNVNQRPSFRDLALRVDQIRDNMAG

As to `C[C@@H](NC(=O)c1ccc(-c2ccnc(Nc3ccc(N4CCOCC4)cc3)n2)cc1)C(F)(F)F` [BH1-151, (R)-4-(2-((4-Morpholinophenyl)amino)pyrimidin-4-yl)-N-(1,1,1-trifluoropropan-2-yl)benzamide], at JAK2 [1], the pIC50 (as a rule, the negative decadic logarithm of the IC50, by convention in mol/L) was 8.95. Besides, on JAK2 [2], the “DSF (JAK2) ΔTm (° C.)” value was determined as 0.4 °C. Moreover, the “DSF (ULK3) ΔTm (° C.)” value on ULK3 [3] was 14.0 °C.
For the compound `CN1CCN(Cc2ccc(Nc3nc(-c4ccc(C(=O)NCC#N)cc4)c4cc[nH]c4n3)cc2)CC1` [RF1-024, N-(Cyanomethyl)-4-(2-((4-((4-methylpiperazin-1-yl)methyl)phenyl)amino)-7H-pyrrolo[2,3-d]pyrimidin-4-yl)benzamide], at JAK2 [1], the pIC50 is over 9.29. Besides, the GI50 (usually the concentration giving 50% growth inhibition) was determined as 9490 nM with 8226 B25; 917 nM in the experiment with U266; 3630 nM with 8226; 2580 nM in the experiment with U266 PSR; 159 nM with OPM2.
Turning to `O=C(NCC(F)(F)F)c1ccc(-c2ccnc(Nc3ccc(N4CCOCC4)cc3)n2)cc1` [SR8-169, 4-(2-((4-Morpholinophenyl)amino)pyrimidin-4-yl)-N-(2,2,2-trifluoroethyl)benzamide], the negative logarithm of the IC50 (pIC50) against ULK3 [4] was 7.99; against JAK2 [1], over 9.29. In addition, the GI50 in the experiment with 8226 B25 turned out to be 214 nM; in the experiment with U266, 86.2 nM; in the experiment on 8226, 83.5 nM; with U266 PSR, 4410 nM; in the experiment with OPM2 it was 15.1 nM. Further, the “DSF (ULK3) ΔTm (° C.)” value on ULK3 [3] was 15.0 °C and 11.7 °C and 14.7 °C.
At JAK2 [1], `Cc1cnc(Nc2ccc(N3CCOCC3)cc2)nc1Nc1ccc(Cl)c(NS(=O)(=O)C(C)(C)C)c1` [BH1-150] had a pIC50 of 8.90. Moreover, the “DSF (JAK2) ΔTm (° C.)” value at JAK2 [2] turned out to be 2.1 °C. Also, the “DSF (ULK3) ΔTm (° C.)” value on ULK3 [3] came out at 15.0 °C.
As for `O=C(NCC(F)(F)F)c1ccc(-c2nc(Nc3ccc(N4CCOCC4)cc3)nc3[nH]ccc23)cc1` [RF1-046, 4-(2-((4-Morpholinophenyl)amino)-7H-pyrrolo[2,3-d]pyrimidin-4-yl)-N-(2,2,2-trifluoro-ethyl)benzamide], the negative logarithm of the IC50 (pIC50) against JAK2 [1] is 9.13.
With `CC(NC(=O)c1ccc(-c2ccnc(Nc3ccc(N4CCOCC4)cc3)n2)cc1)C(F)(F)F` (racemic) [SR8-170, (RS)-4-(2-((4-Morpholinophenyl)amino)pyrimidin-4-yl)-N-(1,1,1-trifluoropropan-2-yl)benzamide], the pIC50 at ULK3 [4] is 8.06; at JAK2 [1] it was 8.88. The GI50 amounted to 404 nM in the experiment on 8226 B25; 210 nM in the experiment with U266; 290 nM with 8226; 1580 nM in the experiment with U266 PSR; 6700 nM in the experiment with OPM2. The “DSF (ULK3) ΔTm (° C.)” value at ULK3 [3] was 14.3 °C and 14.4 °C.
As for `C[C@H](NC(=O)c1ccc(-c2ccnc(Nc3ccc(N4CCOCC4)cc3)n2)cc1)C(F)(F)F` [BH1-152, (S)-4-(2-((4-Morpholinophenyl)amino)pyrimidin-4-yl)-N-(1,1,1-trifluoropropan-2-yl)benzamide], the negative-log IC50 (pIC50) on JAK2 [1] was 9.13. For the same compound, the “DSF (JAK2) ΔTm (° C.)” value on JAK2 [2] turned out to be 0.7 °C. In addition, the “DSF (ULK3) ΔTm (° C.)” value on ULK3 [3] amounted to 12.5 °C.
Consider `CC(C)(C)[C@@H](CO)NC(=O)c1ccc(-c2ccnc(Nc3ccc(N4CCOCC4)cc3)n2)cc1` [BH1-062, (S)—N-(1-Hydroxy-3,3-dimethylbutan-2-yl)-4-(2-((4-morpholinophenyl)amino)pyrimidin-4-yl)benzamide], for which, on JAK2 [1], the pIC50 is 7.89. Besides, the “DSF (JAK2) ΔTm (° C.)” value on JAK2 [2] amounted to 1.0 °C.
As to `CN1CCC(c2cnc(Nc3nc(-c4ccc(C(=O)NCC(F)(F)F)cc4)c4cc[nH]c4n3)cc2F)CC1` [RF1-060, 4-(2-((4-Fluoro-5-(1-methylpiperidin-4-yl)pyridin-2-yl)amino)-7H-pyrrolo[2,3-d]pyrimidin-4-yl)-N-(2,2,2-trifluoroethyl)benzamide], the GI50 in the experiment on 8226 B25 came out at 2930 nM; in the experiment on U266, 4600 nM; in the experiment on 8226, 12000 nM; in the experiment with U266 PSR it was 870 nM; with OPM2, 909 nM. For the same compound, the “DSF (ULK3) ΔTm (° C.)” value on ULK3 [3] came out at 6.8 °C.
On to `O=C(c1ccc(-c2ccnc(Nc3ccc(N4CCOCC4)cc3)n2)cc1)N1CCC[C@H]1C(F)(F)F` [BH1-159, (S)-(4-(2-((4-Morpholinophenyl)amino)pyrimidin-4-yl)phenyl) (2-(trifluoromethyl)pyrrolidin-1-yl) methanone], for which the pIC50 on JAK2 [1] is 7.13. Further, the “DSF (JAK2) ΔTm (° C.)” value at JAK2 [2] was 1.1 °C.
Take `O=C(NC(CO)Cc1ccccc1)c1ccc(-c2ccnc(Nc3ccc(N4CCOCC4)cc3)n2)cc1` (stereo not drawn) [BR1-008]: the negative logarithm of the IC50 (pIC50) against ULK3 [4] is 5.64. Besides, the “DSF (JAK2) ΔTm (° C.)” value at JAK2 [2] came out at 0.5 °C.
On JAK2 [1], `O=C(c1ccc(-c2ccnc(Nc3ccc(N4CCOCC4)cc3)n2)cc1)N1CCC[C@@H]1C(F)(F)F` [BH1-160, (R)-(4-(2-((4-Morpholinophenyl)amino)pyrimidin-4-yl)phenyl) (2-(trifluoromethyl)pyrrolidin-1-yl) methanone] had a pIC50 of 8.07. Also, at JAK2 [2], the “DSF (JAK2) ΔTm (° C.)” value worked out at 1.4 °C.
With `N#CCNC(=O)c1ccc(-c2nc(Nc3ccc(N4CCOCC4)cc3)nc3[nH]ccc23)cc1` [BL4-139], the pIC50 against JAK2 [1] is over 9.29. For the same compound, at ULK3 [3], the “DSF (ULK3) ΔTm (° C.)” value was found to be 15.0 °C.
